Laboratory results as given in patent US9918968B2, “Rapamycin analogs targeting proteasome function in the treatment of cancer” (THE BOARD OF REGENTS OF THE UNIVERSITY OF TEXAS SYSTEM, priority 2013, dated 2018).

Key:
[1] = target: T1, 20S core with 19S, 11S, tRpt5 or tPA200; assay: Activation of 20S core ChT-L activity by α face ligands (19S, 11S, tRpt5, tPA200); assay type: biochemical, human
T1 construct: purchased Enzo LifeSciences (20S, 11S); Boston Biochemicals (19S complex)
Method: (§1) Human purified proteasome complexes were purchased from Enzo LifeSciences or Boston Biochemicals (19S complex). BODIPY-casein (Invitrogen/Molecular Probes) was used as a model protein substrate, with increasing fluorescence of BODIPY labeled peptide products of degradation monitored for up to 8 hours at 37° C. The peptidase activity of the enzyme was measured as arbitrary intensity units of the released fluorescent group 7-amino-4-methylcoumarin (AMC) from peptide substrates, as described. The common substrates specific for the three kinds of active sites: succinyl-LeuLeuValTyr-7-amido-4-methylcoumarin (Suc-LLVY-MCA; for the ChT-L activity; Bachem), butoxycarbonyl-LeuArgArg-MCA (BocLRR-MCA; for T-L; Bachem) and carbobenzoxy-LeuLeuGlu-MCA (CbzLLE-MCA; for PGPH; Enzo Life Sciences International, Inc.) were used at 100 μM final concentrations, unless stated otherwise (Gaczynska and Osmulski, 2005). Proteasome substrates, rapamycin, its derivatives, and competing peptides were stocked in DMSO and diluted 100-fold in the reaction mixtures. The Rpt5 and PA200 C-terminal peptides were synthesized in the Departmental Peptide Synthesis Core using the standard SPPS chemistry. To activate the latent 20S proteasome, 0.005% (final concentration) of sodium dodecyl sulfate (SDS) was used. The reactions were carried out in 96 well plates, with 2.3 nM proteasome and other components as indicated dissolved in 50 mM Tris-HCl buffer (pH 8.0) and incubated at 37° C. for up to 1 hour. The fluorescence of products was monitored every 2 minutes with a Fluoroskan Ascent plate reader. Reaction rates were calculated from smoothed linear segment of kinetic curves using OriginPro 8.6 (OriginLabs, Northampton, Mass.). For the determination of an inhibition type, at least six distinct substrate concentrations and two inhibitor concentrations were used. The kinetic parameters of inhibition were analyzed in terms of the Michaelis-Menten formalism using the enzyme kinetic module of SigmaPlot v.12 (Systat Software, Inc, San Jose, Calif.) to perform the respective calculations.
De novo assembly of 19S from subunits is a complex process assisted by chaperones. In vitro, and likely also in cells, the 26S can also be reconstructed from 20S and the already-assembled 19S particle in the presence of ATP (Smith et al., 2005). Enhancement of the peptidase activities of the core proteasome is an established test for efficiency of the in vitro reconstruction. […] In contrast, a pretreatment of 20S with 5 μM rapamycin before adding ATP and 19S totally abrogated the activation, leaving the proteasome almost 40% inhibited instead (FIG. 6).

[2] = target: T2, human 20S proteasome, ChT-L peptidase; assay: ChT-L peptidase activity of purified human 20S proteasome (Suc-LLVY-MCA); assay type: biochemical; conditions: for IC50: latent human 20S proteasome
T2 construct: purchased Enzo LifeSciences
Method: as §1, with “The common substrates specific for the three kinds of active sites: succinyl-LeuLeuValTyr-7-amido-4-methylcoumarin (Suc-LLVY-MCA; for the ChT-L activity; Bachem), butoxycarbonyl-LeuArgArg-MCA (BocLRR-MCA; for T-L; Bachem) and carbobenzoxy-LeuLeuGlu-MCA (CbzLLE-MCA; for PGPH; Enzo Life Sciences International, Inc.) were used at 100 μM final concentrations, unless stated otherwise (Gaczynska and Osmulski, 2005).” left out, “The reactions were carried out in 96 well plates, with 2.3 nM proteasome and other components as indicated dissolved in 50 mM Tris-HCl buffer (pH 8.0) and incubated at 37° C. for up to 1 hour.” left out, “calculations. […]” for “calculations.”
The in vitro assay for testing the ChT-L peptidase activity of the purified human 20S proteasome was performed as described above.

[3] = target: T3, human 20S proteasome, PGPH peptidase; assay: PGPH peptidase activity of purified human 20S proteasome (CbzLLE-MCA); assay type: biochemical; conditions: for IC50: latent human 20S proteasome
T3 construct: purchased Enzo LifeSciences
Method: as §1
(§2) IC50 values (a drug concentration causing 50% inhibition of the indicated enzymatic activity) were calculated for ChT-L and PGPH peptidases. Kd (dissociation constant) and Bmax (maximal activation effect achieved; in % above the control activity) values were calculated for the T-L peptidase. Mean±SD from n=2 or 3 experiments, or data from representative experiments set in duplicates or triplicates, are presented in the table. All three peptidase activities changed by no more than ±20%, without a concentration-dependent trend, upon treatment with up to 10 μM of rapamycin unrelated mTOR inhibitors PI-103 or NVP-BEZ235, in two independent experiments.

[4] = target: T4, human 20S proteasome, T-L peptidase; assay: T-L peptidase activity of purified human 20S proteasome (BocLRR-MCA); assay type: biochemical; conditions: for Kd: activation of T-L peptidase; for Bmax [%]: T-L: maximal activation effect, % above the control activity
T4 construct: purchased Enzo LifeSciences
Method: as §1, §2

20S proteasome α face = tested on: T5, 20S proteasome α face; assay: AFM imaging of open/closed conformers of 20S proteasome α face; parameters: species or system human; conditions: 10 μM compound
T5 construct: purchased Enzo LifeSciences
Method: AFM imaging of the 20S proteasomes were performed as previously described, in tapping (oscillating) mode in liquid (Osmulski et al., 2009 and Gaczynska and Osmulski, 2011). In short, 3 μL of proteasome preparations diluted to nanomolar concentration were deposited on a freshly cleaved muscovite mica surface. After 2 min incubation allowing electrostatic attachment of the protein particles to mica the droplet was overlaid with 30 microL of 50 mM Tris-HCl buffer (pH 7.0) and mounted in the wet chamber of a MultiMode NanoScope Ma (Bruker Corp.). Oxide-sharpened silicon nitride tips on cantilevers with a nominal spring constant 0.32 N/m (Bruker Corp.) were used to image 1 μm^2 fields in the height mode, with a scan rate of 3.05 Hz. The excitation frequency was manually tuned to 9-10 kHz, with a drive voltage of 200-500 mV and a relatively high set point (1.6 V to 1.9 V) to assure tapping with low, non-destructive force. […] As the inventors established previously, such resolution was sufficient to detect distinct conformations of the α face, covered by six scan lines. Multiple fields were scanned for each sample to collect images of hundreds of particles. Selected fields were repeatedly scanned to monitor changes in topography of the same particles for prolonged time. Inhibitors and the SucLLVY-MCA substrate were diluted in 10 μL of the imaging buffer and directly injected into the chamber. Raw images are presented, with a standard plain-fit and flattening (NanoScope software v.5.12) used as the only processing tools. For display purposes the brightness and contrast of the images was adjusted with the Nanoscope software or with Adobe Photoshop (Adobe Systems Inc.), and outlier scan lines were occasionally manually removed (Nanoscope software). Top view (“standing”, rounded) proteasomes were distinguished from the minor population of side-view (“lying”, rectangular) particles as described, by comparison of their length—to width ratios (Osmulski et al., 2009). The dimensions of particles were approximated and a shape of the α face in top-view proteasomes was judged with the help of a section tool in the Nanoscope v.5.12 or SPIP v.6.02 software (Image Metrology).
For this purpose, the inventors used the noninvasive tapping mode atomic force microscopy (AFM) in liquid, the imaging technique suitable for analysis of surface topography of macromolecules in their native state with a nanometer-scale practical resolution. The inventors established before that AFM imaging is a useful tool for studying structural dynamics of the 20S α face (Osmulski et al., 2009, Gaczynska et al., 2003; Gaczynska et al., 2011). They acquired and analyzed images of hundreds of single native, fully active 20S molecules. The majority of particles were in top-view (“standing”) position conveniently allowing for imaging of their α faces. […] Following previous extensive studies, the inventors refer to the two forms as “closed-gate” and “open-gate” proteasomes, respectively (Osmulski et al., 2009). As described before, the inventors used the shape of sections carried out in four directions through the top portion of the surface topography of the α ring to distinguish between the two forms. In short, the particle was classified as closed if all four sections were cone-shaped. In contrast, the particle was classified as open if all sections presented a dip surrounded by a rim (FIG. 5A) (Osmulski, et al., 2009). The same particles imaged in consecutive scans were able to assume either closed or open conformations, however the cone-shaped particles were always more abundant than crater-shaped, and accounted for about three-quarters of the imaged molecules (FIG. 5B). Addition of rapamycin to the imaged particles remarkably changed the partition of forms. […]

11S: 11S proteasome activator complex PA28/REG
increase of ChT-L activity by protein complex ([1]; 1:1 molar ratio with 20S): 8 fold

C=CC[C@@H]1/C=C(\C)C[C@H](C)C[C@H](OC)[C@H]2O[C@@](O)(C(=O)C(=O)N3CCCC[C@H]3C(=O)O[C@H](/C(C)=C/[C@@H]3CC[C@@H](O)[C@H](OC)C3)[C@H](C)[C@@H](O)CC1=O)[C@H](C)C[C@@H]2OC [FK-506]
IC50 [2]: > 20 µM | IC50 [3]: 0.93 ± 0.04 µM | lowering of activation by tRpt5 ([1]; 10 μM derivative, 10 μM tRpt5): about 30% | inhibition of proteasome with or without tPA200 ([1]; 10 μM derivative, presence or absence of 10 μM tPA200): about 40% | Kd [4]: 1.14 µM | Bmax [%]: T-L [4]: 257%

Oc1cccc(-c2nc(N3CCOCC3)c3oc4ncccc4c3n2)c1 [PI-103]
effect on activation of 20S with 19S ([1]; 5 μM): no detectable effects | closed conformers (20S proteasome α face): 74%±4% | closed conformers after substrate (20S proteasome α face; then SucLLVY-MCA 100 μM): 29%±5%

CO[C@H]1C[C@@H]2CC[C@@H](C)[C@@](O)(O2)C(=O)C(=O)N2CCCC[C@H]2C(=O)O[C@H]([C@H](C)C[C@@H]2CC[C@@H](OCCO)[C@H](OC)C2)CC(=O)[C@H](C)/C=C(\C)[C@@H](O)[C@@H](OC)C(=O)[C@H](C)C[C@H](C)/C=C/C=C/C=C/1C [everolimus]
IC50 [2]: 2.5 ± 0.7 µM | IC50 [3]: 0.48 ± 0.11 µM | Kd [4]: 0.07 µM | Bmax [%]: T-L [4]: 93%

CC[C@@H]1/C=C(\C)C[C@H](C)C[C@H](OC)[C@H]2O[C@@](O)(C(=O)C(=O)N3CCCC[C@H]3C(=O)O[C@H](/C(C)=C/[C@@H]3CC[C@H](Cl)[C@H](OC)C3)[C@H](C)[C@@H](O)CC1=O)[C@H](C)C[C@@H]2OC [pimecrolimus]
remaining ChT-L activity ([2]; 5 μM pimecrolimus alone): 82% | IC50 [2]: > 20 µM | IC50 [3]: 0.57 ± 0.12 µM | IC50 for PGPH increase as compared with rapamycin ([3]; relative to rapamycin): 40% | closed conformers (20S proteasome α face): ~40% | open conformers (20S proteasome α face): about 60% | Kd [4]: 1.82 µM | Bmax [%]: T-L [4]: 483%

CO[C@H]1C[C@@H]2CC[C@@H](C)[C@@](O)(O2)C(=O)C(=O)N2CCCC[C@H]2C(=O)O[C@H]([C@H](C)C[C@@H]2CC[C@@H](O)[C@H](OC)C2)CC(=O)[C@H](C)/C=C(\C)[C@@H](O)[C@@H](OC)C(=O)[C@H](C)C[C@H](C)/C=C/C=C/C=C/1C [rapamycin]
remaining ChT-L activity ([2]; 2 μM rapamycin alone): 70% | ChT-L peptidase activity ([2]; 2 μM, % of DMSO control, representative experiment): 52% | ChT-L peptidase activity after 10-fold dilution ([2]; after incubation with 2 μM, 10-fold dilution): 99% | IC50 [2]: 1.9 ± 0.2 µM | Ki ([2]; mixed inhibition model): 490 nM | PGPH peptidase activity ([3]; 0.2 μM, % of control): 48% | PGPH peptidase activity after 10-fold dilution ([3]; after incubation with 0.2 μM, 10-fold dilution): 96% | IC50 [3]: 0.41 ± 0.03 µM | Ki ([3]; noncompetitive inhibition): 250 nM | inhibition of ChT-L activity, 20S pretreated before ATP and 19S ([1]; 5 μM, 19S 1:1): ~40% | inhibition of proteasome in presence of tPA200 ([1]; 10 μM compound, 10 μM tPA200): 50% | Kd [4]: 0.14 µM | Bmax [%]: T-L [4]: 83%

CO[C@H]1C[C@@H]2CC[C@@H](C)[C@@](O)(O2)C(=O)C(=O)N2CCCC[C@H]2C(=O)O[C@H]([C@H](C)C[C@@H]2CC[C@@H](OP(C)(C)=O)[C@H](OC)C2)CC(=O)[C@H](C)/C=C(\C)[C@@H](O)[C@@H](OC)C(=O)[C@H](C)C[C@H](C)/C=C/C=C/C=C/1C [ridaforolimus]
IC50 [2]: 2.9 ± 0.5 µM | IC50 [3]: 0.43 ± 0.11 µM | Kd [4]: 0.11 µM | Bmax [%]: T-L [4]: 114%

CO[C@H]1C[C@@H]2CC[C@@H](C)[C@@](O)(O2)C(=O)C(=O)N2CCCC[C@H]2C(=O)O[C@H]([C@H](C)C[C@@H]2CC[C@@H](OC(=O)C(C)(CO)CO)[C@H](OC)C2)CC(=O)[C@H](C)/C=C(\C)[C@@H](O)[C@@H](OC)C(=O)[C@H](C)C[C@H](C)/C=C/C=C/C=C/1C [temsirolimus]
IC50 [2]: 2.1 ± 0.2 µM | IC50 for ChT-L lower than rapamycin ([2]; relative to rapamycin): ~40% | IC50 [3]: 0.36 ± 0.03 µM | IC50 for PGPH lower than rapamycin ([3]; relative to rapamycin): 20% | Kd [4]: 0.19 µM | Bmax [%]: T-L [4]: 81%
